# According to US8455649B2, “Insecticidal substituted azinyl derivatives” (Dow AgroSciences, LLC, priority 2007, dated 2013):
# What was measured:
# [1] = tested on: Beet Armyworm (Spodoptera exigua); assay: Insecticidal diet-surface test for beet armyworm; type: in vivo; conditions: 120 h, second-instar larvae on treated diet, 50 μg/cm^2 on diet surface, 5 days after treatment, 8 insects per treatment, read-out: LAPHEG AVG % Mortality (50 μg/cm^2)
# Description: (§1) The compounds identified in Table 1 were tested against beet armyworm and corn earworm as follows:
# (§2) Insecticidal Test for Corn Earworm (Helicoverpa zea) and Beet Armyworm (Spodoptera exigua).
# (§3) To prepare test solution, the test compound was formulated at 2000 ppm solution as 4 mg/2 mL of 9 acetone:1 tap water. 50 μL of the 2000 ppm (equivalent to 50 μg/cm^2 dose on diet surface area) test solution was pipetted upon the surface of 1 mL of lepidopteran diet (Southland Multi-Species Lepidopteran Diet) contained in each of eight wells per insect species (one well=1 replication). A second-instar corn earworm and beet armyworm was placed upon the treated diet in each well once the solvent had air-dried. Trays containing the treated diet and larvae were covered and then held in a growth chamber at 25° C., 50-55% RH, and 16 hr light:8 hr dark for 5 days. Observation were conducted 5 days after treatment and infestation. The number of dead insects of 8 per species per treatment was then determined and the results are given in Table 2 as a percent control at a dose of […].
# [2] = tested on: Corn Earworm (Helicoverpa zea); assay: Insecticidal diet-surface test for corn earworm; type: in vivo; conditions: 120 h, second-instar larvae on treated diet, 50 μg/cm^2 on diet surface, 5 days after treatment, 8 insects per treatment, read-out: HELIZE AVG % Mortality (50 μg/cm^2)
# Description: as §1, §2, §3
smiles,measurement,setting,value
"O=C(Nc1ccc(C(F)(F)F)cc1)N(COCc1ccccc1)c1nc(OCC(F)(F)F)cc(OCC(F)(F)F)n1 [Compound 19, N-Benzyloxymethyl-N-[4,6-bis-(2,2,2-trifluoroethoxy)pyrimidin-2-yl]-N′-[(4-trifluoromethyl)phenyl]urea]",mortality at 50 µg/cm2,[1],100%
same,mortality at 50 µg/cm2,[2],100%
CN(C(=O)Nc1nc(OCC(F)(F)F)cc(OCC(F)(F)F)n1)c1ccc(Br)c(C(F)(F)F)c1 [Compound 181],mortality at 50 µg/cm2,[1],100%
same,mortality at 50 µg/cm2,[2],100%
O=C(Nc1ccc(OC(F)(F)F)cc1)Nc1nc(OCC(F)(F)F)c(Cl)c(OCC(F)(F)F)n1 [Compound 136],mortality at 50 µg/cm2,[1],100%
same,mortality at 50 µg/cm2,[2],100%
CN(C(=O)Nc1nc(OCC(F)(F)F)cc(OCC(F)(F)F)n1)c1ccc(Cl)cc1 [Compound 21],mortality at 50 µg/cm2,[1],100%
same,mortality at 50 µg/cm2,[2],100%
O=C(O)CN(C(=O)Nc1nc(OCC(F)(F)F)cc(OCC(F)(F)F)n1)c1ccc(OC(F)(F)F)cc1 [Compound 32],mortality at 50 µg/cm2,[1],100%
same,mortality at 50 µg/cm2,[2],100%
O=C(Nc1ccc(C(F)(F)F)cc1)Nc1nc(Cl)cc(OCC(F)(F)F)n1 [Compound 97],mortality at 50 µg/cm2,[1],100%
same,mortality at 50 µg/cm2,[2],100%
CN(C(=O)Nc1nc(OCC(F)(F)C(F)(F)F)cc(OCC(F)(F)C(F)(F)F)n1)c1ccc(C(F)(F)F)cc1 [Compound 176],mortality at 50 µg/cm2,[1],100%
same,mortality at 50 µg/cm2,[2],100%
CN(C(=O)Nc1nc(OCC(F)(F)F)cc(OCC(F)(F)F)n1)c1ccc(C(F)(F)C(F)(F)F)cc1 [Compound 152],mortality at 50 µg/cm2,[1],100%
same,mortality at 50 µg/cm2,[2],100%
"CN(C(=O)N(C)c1nc(OCC(F)(F)F)cc(OCC(F)(F)F)n1)c1ccc(OC(F)(F)F)cc1 [Compound 11, N-[4,6-bis(2,2,2-trifluoroethoxy)pyrimidin-2-yl]-N,N′-dimethyl-N-[4-(trifluoromethoxy)phenyl]urea]",mortality at 50 µg/cm2,[1],100%
same,mortality at 50 µg/cm2,[2],100%
O=C(Nc1ccc(C(F)(F)F)cc1)Nc1nc(OCC(F)(F)C(F)F)cc(OCC(F)(F)C(F)F)n1 [Compound 175],mortality at 50 µg/cm2,[1],100%
same,mortality at 50 µg/cm2,[2],100%
O=C(Nc1ccc(Cl)cc1)Nc1nc(OCC(F)(F)F)cc(OCC(F)(F)F)n1 [Compound 20],mortality at 50 µg/cm2,[1],100%
same,mortality at 50 µg/cm2,[2],100%
O=C(Nc1ccc(OC(F)(F)C(F)F)cc1)Nc1nc(OCC(F)(F)F)cc(OCC(F)(F)F)n1 [Compound 14],mortality at 50 µg/cm2,[1],100%
same,mortality at 50 µg/cm2,[2],100%
CCOCN(C(=O)N(COCc1ccccc1)c1nc(OCC(F)(F)F)cc(OCC(F)(F)F)n1)c1ccc(C(F)(F)F)nc1 [Compound 88],mortality at 50 µg/cm2,[1],100%
same,mortality at 50 µg/cm2,[2],100%
Cc1cc(Br)ccc1N(C)C(=O)Nc1nc(OCC(F)(F)F)cc(OCC(F)(F)F)n1 [Compound 158],mortality at 50 µg/cm2,[1],100%
same,mortality at 50 µg/cm2,[2],100%
"O=C(Nc1ccc(C(F)(F)F)cc1)Nc1nc(OCC(F)(F)F)cc(C(F)(F)F)n1 [Compound 102, N-(4-trifluoromethylphenyl)-N′-[4-trifluoromethyl-6-(2,2,2-trifluoroethoxy)pyrimidin-2-yl]urea]",mortality at 50 µg/cm2,[1],0%
same,mortality at 50 µg/cm2,[2],100%
CN(C(=O)Nc1nc(OCC(F)(F)F)cc(OCC(F)(F)F)n1)c1ccc(C#N)cc1 [Compound 83],mortality at 50 µg/cm2,[1],100%
same,mortality at 50 µg/cm2,[2],100%
O=C(Nc1ccc(C(F)(F)F)cc1)Nc1nc(NCC(F)(F)F)cc(OCC(F)(F)F)n1 [Compound 99],mortality at 50 µg/cm2,[1],100%
same,mortality at 50 µg/cm2,[2],100%
CC1(COc2cc(OCC(F)(F)F)nc(NC(=O)Nc3ccc(C(F)(F)F)cc3)n2)CC1(Cl)Cl (stereo not drawn) [Compound 101],mortality at 50 µg/cm2,[1],100%
same,mortality at 50 µg/cm2,[2],100%
O=C(Nc1ccc(Br)cc1)Nc1nc(OCC(F)(F)F)nc(OCC(F)(F)F)n1 [Compound 117],mortality at 50 µg/cm2,[1],100%
same,mortality at 50 µg/cm2,[2],0%
CN(C(=O)Nc1cc(OCC(F)(F)F)nc(OCC(F)(F)F)n1)c1ccc(OC(F)(F)F)cc1 [Compound 106],mortality at 50 µg/cm2,[1],100%
same,mortality at 50 µg/cm2,[2],100%
O=C(Nc1nc(OCC(F)(F)F)cc(OCC(F)(F)F)n1)N(c1ccc(OC(F)(F)F)cc1)C(F)(F)F [Compound 93],mortality at 50 µg/cm2,[1],100%
same,mortality at 50 µg/cm2,[2],100%
CN(C(=O)Nc1nc(OCC(F)(F)F)cc(OCC(F)(F)F)n1)c1ccc(Cl)cc1Cl [Compound 149],mortality at 50 µg/cm2,[1],100%
same,mortality at 50 µg/cm2,[2],100%
O=C(Nc1ccc(Cl)nc1)Nc1nc(OCC(F)(F)F)cc(OCC(F)(F)F)n1 [Compound 49],mortality at 50 µg/cm2,[1],100%
same,mortality at 50 µg/cm2,[2],100%
O=C(Nc1nc(OCC(F)(F)F)cc(OCC(F)(F)F)n1)Nc1c(Cl)cc(OC(F)(F)F)cc1Cl [Compound 178],mortality at 50 µg/cm2,[1],100%
same,mortality at 50 µg/cm2,[2],100%
